Reference: patent US8084645B2, “4-phenylamino-benzaldoxime derivatives and uses thereof as mitogen-activated protein kinase kinase (MEK) inhibitors” (Chugai Seiyaku Kabushiki Kaisha, priority 2003, dated 2011)
≈ marks a conversion by molar mass, not a printed value.

What was measured:
[1] = test system: Human colon cancer cell line HT-29; experiment: Determination of the activity of inhibiting cell proliferation (Cell Counting Kit-8); format: cell-based; conditions: HT-29, 96 h, HT29, 2,000 cells/well, incubated four days, read-out: Cell proliferation inhibitory activity (HT29) IC50
Procedure: Human colon cancer cell line HT-29, obtained from American Type Culture Collection (VA, USA), and human non-small cell lung cancer cell line QG56, obtained from Immuno-Biological Laboratories Co., Ltd., were plated at 2,000 cells/well in a 96-well culture plate, and incubated for four days after addition of a MEK inhibitor of a given concentration.

[2] = Determination of stability against mouse liver microsomes; format: in vitro ADME; conditions: mouse liver microsomes 1 mg protein/mL, 2 mM NADPH, pH 7.4, 37 C; read-out: Stability against mouse liver microsome NADPH+ T1/2
Procedure: (§1) The enzyme reaction was quenched with three volumes of acetonitrile, and the reaction mixture was centrifuged at 1,500 rpm for ten minutes to provide a supernatant as a sample to be measured. Stability against mouse liver microsomes was measured using HPLC/MS to determine the compounds in the sample.

[3] = Determination of stability against human liver microsomes; format: in vitro ADME; conditions: human liver microsomes 1 mg protein/mL, 2 mM NADPH, pH 7.4, 37 C; read-out: Stability against human liver microsome NADPH+ T1/2
Procedure: as §1, with “human” for “mouse”

[4] = phase I clinical trials; cited from earlier work
[5] = Determination of water solubility (equilibrium stirring method); format: physicochemical; conditions: 50 mM phosphate buffer pH 6.5, room temperature (20 C); for solubility at 2 h: aqueous buffer, thermodynamic from solid, read-out: Water solubility (LySA PH 6.5)
Procedure: The vessels were sealed, and the contents were sonicated at room temperature (20° C.) for ten minutes, and then stirred with a stirrer for two hours. After reaching solution equilibrium, the solution was separated with a membrane filter, and the solute concentration was determined using HPLC.

MEK = MEK (Homo sapiens, UniProt Q02750); experiment: Determination of MEK inhibitory activities (Raf-1 kinase cascade assay, MBP phosphorylation, 33P-ATP)
Sequence of MEK (Q02750 whole entry): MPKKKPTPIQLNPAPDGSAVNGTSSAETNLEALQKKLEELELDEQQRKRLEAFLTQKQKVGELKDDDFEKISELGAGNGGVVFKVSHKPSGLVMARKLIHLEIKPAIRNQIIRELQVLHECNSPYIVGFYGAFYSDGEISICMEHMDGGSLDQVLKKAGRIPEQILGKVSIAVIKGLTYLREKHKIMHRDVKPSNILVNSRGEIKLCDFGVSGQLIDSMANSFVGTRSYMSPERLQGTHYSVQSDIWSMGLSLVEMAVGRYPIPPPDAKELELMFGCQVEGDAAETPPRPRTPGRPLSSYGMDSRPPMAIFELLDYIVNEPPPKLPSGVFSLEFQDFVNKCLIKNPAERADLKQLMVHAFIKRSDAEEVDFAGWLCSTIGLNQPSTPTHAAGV
Source text: The radioisotope used was [γ^33P]-ATP (Amersham Biosciences, K.K.).

SMILES	IC50 [1] [nM]	half-life [2] [h]	half-life [3] [h]	differences in pharmacokinetic parameters between patients [4]	in vivo inactivation [4]	solubility at 2 h [5] [µM]	IC50 (MEK) [nM]	Water solubility (LySA PH 6.5) [5] [µM]
O=C(NOCC1CC1)c1ccc(F)c(F)c1Nc1ccc(I)cc1Cl [CI-1040, reference compound]	100	0.18	0.482	large differences	quick in vivo inactivation by hydrolysis	–	–	–
O=C(CO/N=C/c1cc(C(=O)NOCCO)c(Nc2ccc(I)cc2F)c(F)c1F)NCCO [Compound 45, (E)-3,4-difluoro-2-(2-fluoro-4-iodo-phenylamino)-N-(2-hydroxy-ethoxy)-5-{[(2-hydroxyethylcarbamoyl)-methoxyimino]-methyl}-benzamide]	196	2.15	> 6	–	–	73 (≈ 43.5 µg/mL)	267	–
CS(=O)(=O)NCCO/N=C/c1cc(C(=O)NOCCO)c(Nc2ccc(I)cc2F)c(F)c1F [Compound 47, (E)-3,4-difluoro-2-(2-fluoro-4-iodo-phenylamino)-N-(2-hydroxy-ethoxy)-5-[(2-methanesulfonylamino-ethoxyimino)-methyl]-benzamide]	138	> 6	> 6	–	–	11 (≈ 6.78 µg/mL)	209	–
C#Cc1ccc(Nc2c(C(=O)NOCCO)cc(/C=N\OCCO)c(F)c2F)c(F)c1 [Compound 48, (Z)-2-(4-ethynyl-2-fluoro-phenylamino)-3,4-difluoro-N-(2-hydroxy-ethoxy)-5-[(2-hydroxy-ethoxyimino)-methyl]-benzamide]	13	2.03	0.603	–	–	301 (≈ 132 µg/mL)	51	–
O=C(NOCCO)c1cc(/C=N\OCCO)c(F)c(F)c1Nc1ccc(I)cc1F [Compound 49, (Z)-3,4-difluoro-2-(2-fluoro-4-iodo-phenylamino)-N-(2-hydroxy-ethoxy)-5-[(2-hydroxy-ethoxyimino)-methyl]-benzamide]	4.8	> 6	> 6	–	–	–	31	75
O=C(NOCCO)c1cc(/C=N\OCC(O)CO)c(F)c(F)c1Nc1ccc(I)cc1F (stereo not drawn) [Compound 52, (dl)-(Z)-5-[(2,3-Dihydroxy-propoxyimino)-methyl]-3,4-difluoro-2-(2-fluoro-4-iodo-phenylamino)-N-(2-hydroxy-ethoxy)-benzamide]	5.8	> 6	> 6	–	–	175 (≈ 99.6 µg/mL)	15	–
CC(=O)NCCO/N=C\c1cc(C(=O)NOCCO)c(Nc2ccc(I)cc2F)c(F)c1F [Compound 54, (Z)-5-[(2-Acetylamino-ethoxyimino)-methyl]-3,4-difluoro-2-(2-fluoro-4-iodo-phenylamino)-N-(2-hydroxy-ethoxy)-benzamide]	6.5	> 6	> 6	–	–	20 (≈ 11.6 µg/mL)	21	–
CNC(=O)CCCO/N=C\c1cc(C(=O)NOCCO)c(Nc2ccc(I)cc2F)c(F)c1F [Compound 55]	4.6	> 6	1.62	–	–	12 (≈ 7.13 µg/mL)	37	–
CNC(=O)CO/N=C\c1cc(C(=O)NOCCO)c(Nc2ccc(I)cc2F)c(F)c1F [Compound 56, (Z)-3,4-Difluoro-2-(2-fluoro-4-iodo-phenylamino)-N-(2-hydroxy-ethoxy)-5-(methylcarbamoylmethoxyimino-methyl)-benzamide]	3.4	0.645	> 6	–	–	85 (≈ 48.1 µg/mL)	49	–
O=C(CO/N=C\c1cc(C(=O)NOCCO)c(Nc2ccc(I)cc2F)c(F)c1F)NCCO [Compound 57, (Z)-3,4-Difluoro-2-(2-fluoro-4-iodo-phenylamino)-N-(2-hydroxy-ethoxy)-5-{[(2-hydroxyethylcarbamoyl)-methoxyimino]-methyl}-benzamide]	27	> 6	> 6	–	–	224 (≈ 134 µg/mL)	19	–
